Source: PMC6212493, “Development and evaluation of a novel series of Nitroxoline-derived BET inhibitors with antitumor activity in renal cell carcinoma” (Oncogenesis, 2018)
“Also recorded” adds a separate entry of the source.

Columns and labels:
RCTEC normal cell line = test: Viability of normal cells, RCTEC; format: cell-based; settings: at similar concentrations as RCC cells
Method: (§1) RCC cells 786-O, 769-P, A498, and ACHN were purchased from ATCC. All the cells were authenticated by STR profiling at Genesky Biopharma Technology and tested for Mycoplasma contamination. […] For the viability assay, cells were plated on 96-well plates at the density of 0.5–1 × 10^3/well. After cell attachment, various concentrations of compounds and DMSO were added, the plates were incubated for 7 days. After the addition of 10 μL Alamar Blue and incubation for 3 h at 37 °C, fluorescent signals were measured with a PE Envision reader, at the wavelength of 544 nm for excitation and 590 nm for emission. Finally, the percentages of viability were calculated by normalizing against the control.

786-O xenograft tumor = test: RCC xenograft mice model (786-O); format: in vivo, nude mice; settings: 50 mg/kg intraperitoneally daily
Method: All animal experiments were approved by IACUC (Institutional Animal Care and Use Committee) of Shanghai Institute of Materia Medica. Four to six-week-old female nude mice purchased from Silaike Laboratory Animal Ltd. were subcutaneously inoculated with 5 × 10^6 786-O cells in 100 μL PBS. All nude mice were raised under pathogen-free conditions to achieve tumor growth. Sample size of each group (n = 7) was chosen following the instruction by http://www.biomath.info. As long as the tumor sizes reached palpable stage, the mice were randomly divided into two groups (n = 7/group). One group is for compound BDF-1253 treatment trials and the other group is the control group. […] These mice were treated intraperitoneally with either diluted compound BDF-1253 of 50 mg/kg or vehicle on a daily basis. Tumor volume was evaluated every 3 days using Vernier calipers and calculated with the equation: length × width^2 × 0.5. Animals were killed when their tumors reached 2 cm^3.

[1] = system: c-Myc, Bcl-2, and CDK6 mRNA expression; test: Real-time PCR of BET downstream genes in RCC cells; format: cell-based; settings: relative to DMSO control, normalized to β2-microglobulin
Method: Trizol reagent (Vazyme) was used to extract total RNA of ccRCC tumor samples or cells following manufacturer’s instructions. Synthesis of complementary DNA (cDNA) was done using the HiScript® II RT SuperMix (Vazyme). StepOnePlus (Life Technologies) apparatus was applied to carry out quantitative real-time PCR (qPCR). Gene-specific data were normalized to β2-microglobulin and are calculated as relative expression compared to DMSO or control group using the ΔΔCT method.

BET family proteins = test: In vitro selective assay at 3 μM, BET proteins; format: binding
Method: (§2) First, we compared the inhibitory activity of BDF-1253 to displace BRD4-BD1 or BRD4-BD2 domain from acetylated H4 peptide using ALPHA assay. […] An in vitro selective assay was also conducted to examine the effect of BDF-1253 at 3 μM on the other BET proteins, other BRD proteins out of BET family (SMACAR, BPTF, PCAF) as well as several epigenetic enzymes.
(§3) Determination of inhibition against BET family members, bromodomain proteins out of the BET family as well as several epi-enzymes by BDF-1253 at 3 μM.

BRD4-BD2 = BRD4-BD2 (Homo sapiens, UniProt O60885); test: ALPHA assay, displacement of BRD4-BD2 from acetylated H4 peptide; format: binding
Method: as §2
(§4) Amplified Luminescent Proximity Homogeneous Assay (ALPHA) screen assay was used to determine the IC50 of compounds for competitive displacement of BRD4_BD1 from the acetylated H4 peptide. As previously described, 2.5 μL compounds and 2.5 μL proteins were added into each well of 384-well plates and incubated at room temperature for 15 min. To start the reaction, 5 μL substrate peptide was added and incubated at room temperature for 5 min. Subsequently, 5 µL nickel-chelate acceptor beads (PerkinElmer) and 5 µL streptavidin-conjugate donor beads (PerkinElmer) were added. After 60 min incubation at room temperature, data were collected by EnVision (PerkinElmer) and analyzed using GraphPad Prism 5.0.
IC50 determination of BDF-1253 against BRD4-BD1 and BRD4-BD2 using Alpha Screen method.

HUVEC normal cell line = test: Viability of normal cells, HUVEC; format: cell-based; settings: at similar concentrations as RCC cells
BRD4-BD1 = molecular target: T1, BRD4-BD1 (Homo sapiens, UniProt O60885); test: ALPHA screen assay, displacement of BRD4-BD1 from acetylated H4 peptide; format: binding
T1 construct: with the first bromodomain of BRD4 (BRD4-BD1) were solved; 6xHis (N); made in house; host or cells: Escherichia coli BL21 (DE3)
Method: as §4

[2] = system: c-Myc, Bcl-2, Bax, cleaved-PARP, cleaved-Caspase3 protein abundance; test: Western blot of BET downstream and apoptosis proteins in RCC cells; format: cell-based; settings: immunoblot
Method: Protein lysates from tissue samples were obtained using RIPA buffer supplemented with protease and phosphatase inhibitors. For the cellular samples, cells were collected following treatment with DMSO and compounds. Western blot was performed as previously described.[25] The primary antibodies were BRD2 (A302-583A, Bethyl), BRD3 (A302-368A, Bethyl), BRD4 (A301-985A, Bethyl), MYC (sc-40, Santa Cruz Biotechnology), BCL2 (ab7973, Abcam), BAX (ab32503, Abcam), cleaved PARP (Cell Signaling, #5625). The secondary antibodies were anti-rabbit IgG (Jackson, 111-035-003) or anti-mouse IgG (Jackson). HRP substrate (GE Healthcare) was used for the detection of chemical luminescence, and FUJIFILM LAS-4000 was used for image acquisition.

ACHN cells = test: Alamar Blue viability assay, ACHN; format: cell-based; settings: Homo sapiens, 168 h, treatment for 7 days, read-out: IC50, cell viability
Method: as §1

786-O cells = test: Alamar Blue viability assay, 786-O; format: cell-based
Method: as §1

Caki cells = test: Alamar Blue viability assay, Caki; format: cell-based; settings: 168 h, treatment for 7 days, read-out: IC50, cell viability
A498 cells = test: Alamar Blue viability assay, A498; format: cell-based; settings: Homo sapiens, 168 h; A498, treatment for 7 days; read-out: IC50, cell viability
Method: as §1

[3] = system: non-BET BRD-containing proteins (SMACAR, BPTF, PCAF) and epigenetic enzymes; test: In vitro selective assay at 3 μM, non-BET bromodomain proteins and epi-enzymes; format: biochemical
Method: as §2, §3

SMILES | inhibition of normal cell viability (RCTEC normal cell line) | c-Myc expression in tumors (immunoblotting) (786-O xenograft tumor) | tumor size (786-O xenograft tumor; 21 days, 786-O xenograft) | body weight / toxicity (786-O xenograft tumor; during dosing) | mRNA expression levels of c-Myc, Bcl-2, and CDK6 (BET target gene transcription) [1] | effect on BET family proteins (BET family proteins) | selectivity for BRD4-BD1 or BRD4-BD2 domain (BRD4-BD2) | inhibition of normal cell viability (HUVEC normal cell line) | IC50 (BRD4-BD1) [nM] | PRAP and Caspase3 cleavage and expression of pro-apoptotic protein Bax [2] | protein abundance of c-Myc, Bcl-2 (BRD4 downstream effectors) [2] | IC50 (ACHN cells) [nM] | IC50 (786-O cells; Homo sapiens, 786-0, 168 h, 786-O, treatment for 7 days, read-out: IC50, cell viability) [nM] | effect on RCC cell proliferation (786-O cells; RCC 786-o cells, in words) | IC50 (Caki cells) [µM] | IC50 (A498 cells) [nM] | effect on non-BET BRD-containing proteins or other epigenetic enzymes [3]
CC(=O)Nc1cc(Cn2ccnc2)c2cccc(O)c2n1 [BDF-1253] | little inhibition | reduced | remarkable reduction in tumor size | no obvious loss of body weight or toxicity | inhibited expression; also recorded: dose-dependently decreased | selectively inhibited BET family proteins | no obvious selectivity | little inhibition | 287 | increased PRAP and Caspase3 cleavage and elevated expression of pro-apoptotic protein Bax | reduced after the treatment, in a dose-dependent manner | 2070 | 1510 | inhibited the proliferation | 3.57 | 1390 | minimal effects
O=[N+]([O-])c1ccc(O)c2ncccc12 [Nitroxoline] |  |  |  |  |  |  |  |  | 980 |  |  |  |  |  |  |  | 
